Data published in ChEMBL document CHEMBL1201862, “PubChem BioAssay data set” (2004).
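Grown in 96-well plates, cells were treated for 48 hours with each compound at five concentrations. Insufficient inhibition: endpoint recorded as highest concentration tested. GI50 marks 50% less growth.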 Activity calls are given as the source filed them. Rule as the data show it: active = GI50 up to about 1.1 µM and inactive = higher.

What was measured:
Assay in all cases: growth of human tumour cells (NCI), 48 h
786-0 = test system: 786-0
A498 = test system: A498
A549 = test system: A549
ACHN = test system: ACHN
BT-549 = test system: BT-549
CAKI-1 = test system: CAKI-1
CCRF-CEM = test system: CCRF-CEM
COLO 205 = test system: COLO 205
DU-145 = test system: DU-145
HCC 2998 = test system: HCC 2998
HCT-116 = test system: HCT-116
HCT-15 = test system: HCT-15
HL-60 = test system: HL-60
HOP-92 = test system: HOP-92
HT-29 = test system: HT-29
IGROV-1 = test system: IGROV-1
K562 = test system: K562
KM12 = test system: KM12
M14 = test system: M14
MCF7 = test system: MCF7
MDA-MB-231 = test system: MDA-MB-231
MDA-MB-435 = test system: MDA-MB-435
MDA-N = test system: MDA-N
MOLT-4 = test system: MOLT-4
Malme-3M = test system: Malme-3M
NCI-H226 = test system: NCI-H226
NCI-H23 = test system: NCI-H23
NCI-H460 = test system: NCI-H460
NCI-H522 = test system: NCI-H522
NCI/ADR-RES = test system: NCI/ADR-RES
OVCAR-3 = test system: OVCAR-3
OVCAR-4 = test system: OVCAR-4
OVCAR-5 = test system: OVCAR-5
OVCAR-8 = test system: OVCAR-8
PC-3 = test system: PC-3
RPMI-8226 = test system: RPMI-8226
RXF 393 = test system: RXF 393
SF-268 = test system: SF-268
SF-295 = test system: SF-295
SF-539 = test system: SF-539
SK-MEL-28 = test system: SK-MEL-28
SK-MEL-2 = test system: SK-MEL-2
SK-MEL-5 = test system: SK-MEL-5
SN12C = test system: SN12C
SNB-19 = test system: SNB-19
SNB-75 = test system: SNB-75
SR = test system: SR
SW-620 = test system: SW-620
T47D = test system: T47D
TK-10 = test system: TK-10
U-251 = test system: U-251
UACC-257 = test system: UACC-257
UACC-62 = test system: UACC-62
UO-31 = test system: UO-31
EKVX = test system: EKVX
HOP-62 = test system: HOP-62
Hs-578T = test system: Hs-578T
LOX IMVI = test system: LOX IMVI
SK-OV-3 = test system: SK-OV-3

Measured: GI50

N#Cc1ccc2oc3ccc(C#N)cc3c(=O)c2c1
inactive: 786-0 25.8 µM | A498 14.8 µM | A549 23 µM | ACHN > 100 µM | BT-549 25.5 µM | CAKI-1 > 100 µM | CCRF-CEM 31.8 µM | COLO 205 26.7 µM | DU-145 30.8 µM | HCC 2998 58.2 µM | HCT-116 29 µM | HL-60 17.9 µM | HOP-92 41 µM | HT-29 20.2 µM | IGROV-1 32 µM | K562 31.3 µM | KM12 46.5 µM | M14 > 100 µM | MCF7 24.5 µM | MDA-MB-231 > 100 µM | MDA-MB-435 34.4 µM | MDA-N 16.4 µM | MOLT-4 23.6 µM | Malme-3M 24.2 µM | NCI-H226 35.9 µM | NCI-H23 21.3 µM | NCI-H460 18.6 µM | NCI-H522 58.2 µM | NCI/ADR-RES > 100 µM | OVCAR-3 > 10 µM | OVCAR-4 18 µM | OVCAR-5 19.7 µM | OVCAR-8 > 100 µM | PC-3 24.7 µM | RPMI-8226 23.2 µM | RXF 393 18.3 µM | SF-268 35.9 µM | SF-295 22.9 µM | SF-539 21.3 µM | SK-MEL-28 18.5 µM | SK-MEL-2 19.6 µM | SK-MEL-5 5.6 µM | SN12C > 100 µM | SNB-19 27.9 µM | SNB-75 31.7 µM | SR 41.6 µM | SW-620 51.5 µM | T47D > 100 µM | TK-10 24.3 µM | U-251 17.1 µM | UACC-257 > 100 µM | UACC-62 19 µM | UO-31 > 100 µM
> 100 µM: HCT-15

COc1cccc(NC(=O)c2c(SC)c(C#N)c(=O)n(N)c2N)c1
inactive: 786-0 28.6 µM | A498 79.3 µM | A549 57.7 µM | ACHN > 100 µM | BT-549 61.8 µM | CAKI-1 > 100 µM | CCRF-CEM 35.2 µM | COLO 205 > 100 µM | EKVX > 100 µM | HCC 2998 > 100 µM | HCT-116 35.2 µM | HOP-62 50.9 µM | HOP-92 47.4 µM | HT-29 52 µM | Hs-578T 41.1 µM | IGROV-1 > 100 µM | K562 45.9 µM | KM12 > 100 µM | LOX IMVI 88.1 µM | M14 30.6 µM | MCF7 > 100 µM | MDA-MB-231 95.7 µM | MDA-MB-435 97.5 µM | MDA-N > 100 µM | MOLT-4 41.8 µM | Malme-3M > 100 µM | NCI-H226 > 100 µM | NCI-H460 67.1 µM | NCI-H522 42.3 µM | NCI/ADR-RES 43 µM | OVCAR-4 40.9 µM | OVCAR-5 31.7 µM | OVCAR-8 47.9 µM | PC-3 49.8 µM | RXF 393 > 100 µM | SF-268 72.1 µM | SF-295 34.2 µM | SF-539 66.4 µM | SK-MEL-28 > 100 µM | SK-MEL-2 > 100 µM | SK-MEL-5 64.9 µM | SK-OV-3 44.5 µM | SN12C > 100 µM | SNB-19 4.52 µM | SNB-75 1.46 µM | SW-620 51.2 µM | TK-10 > 100 µM | U-251 68.4 µM | UACC-257 > 100 µM | UACC-62 61.5 µM
66.2 µM: HCT-15

CCN(C(=S)N[C@@H](Cc1ccccc1)C(=O)N[C@@H](CC(C)C)C(=O)OC)c1ccccc1
49 µM: HCT-15
inactive: 786-0 > 100 µM | A549 78.2 µM | ACHN 47.3 µM | BT-549 69 µM | CAKI-1 > 100 µM | CCRF-CEM 33.5 µM | COLO 205 49.2 µM | DU-145 > 100 µM | EKVX > 100 µM | HCC 2998 > 100 µM | HCT-116 75 µM | HOP-62 > 100 µM | HOP-92 > 100 µM | HT-29 46 µM | IGROV-1 50.4 µM | K562 43.2 µM | KM12 50.9 µM | LOX IMVI > 100 µM | M14 > 100 µM | MCF7 34 µM | MDA-MB-231 > 100 µM | MDA-MB-435 > 100 µM | MDA-N > 100 µM | MOLT-4 23.4 µM | Malme-3M > 100 µM | NCI-H226 > 100 µM | NCI-H23 71.4 µM | NCI-H460 58.2 µM | NCI-H522 55.6 µM | NCI/ADR-RES > 100 µM | OVCAR-3 > 100 µM | OVCAR-4 > 100 µM | OVCAR-5 > 100 µM | OVCAR-8 > 100 µM | PC-3 63.1 µM | RPMI-8226 75.9 µM | RXF 393 > 100 µM | SF-295 > 100 µM | SF-539 > 100 µM | SK-MEL-28 > 100 µM | SK-MEL-2 > 100 µM | SK-MEL-5 > 100 µM | SK-OV-3 > 100 µM | SN12C > 100 µM | SNB-19 49.2 µM | SNB-75 > 100 µM | SR 24 µM | SW-620 50.6 µM | T47D > 100 µM | TK-10 > 100 µM | U-251 50.7 µM | UACC-257 > 100 µM | UACC-62 > 100 µM | UO-31 > 100 µM
